Measured values from paper PMC10838953.

What was measured:
[1] = target: FAK (Homo sapiens, UniProt Q05397); assay: biochemical; details: read-out: %Ctrl @ 2000nM
[2] = target: PRKR (Homo sapiens, UniProt P19525); assay: biochemical; details: read-out: %Ctrl @ 2000nM
[3] = target: MYO3A (Homo sapiens, UniProt Q8NEV4); assay: biochemical; details: read-out: %Ctrl @ 2000nM
[4] = target: ABL1(T315I)-nonphosphorylated (Homo sapiens, UniProt P00519, T315I); assay: biochemical; details: read-out: %Ctrl @ 2000nM
[5] = target: MYLK (Homo sapiens, UniProt Q15746); assay: biochemical; details: read-out: %Ctrl @ 2000nM
[6] = target: AKT1 (Homo sapiens, UniProt P31749); assay: biochemical; details: read-out: %Ctrl @ 2000nM
AKT1, sequence (P31749 whole entry): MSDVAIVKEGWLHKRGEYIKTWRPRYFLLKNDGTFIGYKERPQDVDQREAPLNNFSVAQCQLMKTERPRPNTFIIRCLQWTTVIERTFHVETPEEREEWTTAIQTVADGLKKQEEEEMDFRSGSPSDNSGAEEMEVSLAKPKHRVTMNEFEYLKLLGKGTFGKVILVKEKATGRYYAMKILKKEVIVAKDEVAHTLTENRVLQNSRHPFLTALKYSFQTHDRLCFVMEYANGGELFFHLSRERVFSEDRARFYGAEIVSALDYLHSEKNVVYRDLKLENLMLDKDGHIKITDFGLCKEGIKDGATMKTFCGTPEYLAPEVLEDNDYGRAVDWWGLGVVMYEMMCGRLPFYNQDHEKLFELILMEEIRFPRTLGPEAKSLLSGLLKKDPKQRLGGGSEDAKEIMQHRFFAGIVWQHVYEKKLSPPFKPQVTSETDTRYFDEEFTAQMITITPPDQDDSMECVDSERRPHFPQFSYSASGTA

[7] = target: DCAMKL3 (Homo sapiens, UniProt Q9C098); assay: biochemical; details: read-out: %Ctrl @ 2000nM
[8] = target: DAPK2 (Homo sapiens, UniProt Q9UIK4); assay: biochemical; details: read-out: %Ctrl @ 2000nM
[9] = target: PRKG1 (Homo sapiens, UniProt Q13976); assay: biochemical; details: read-out: %Ctrl @ 2000nM
PRKG1, sequence (Q13976 whole entry): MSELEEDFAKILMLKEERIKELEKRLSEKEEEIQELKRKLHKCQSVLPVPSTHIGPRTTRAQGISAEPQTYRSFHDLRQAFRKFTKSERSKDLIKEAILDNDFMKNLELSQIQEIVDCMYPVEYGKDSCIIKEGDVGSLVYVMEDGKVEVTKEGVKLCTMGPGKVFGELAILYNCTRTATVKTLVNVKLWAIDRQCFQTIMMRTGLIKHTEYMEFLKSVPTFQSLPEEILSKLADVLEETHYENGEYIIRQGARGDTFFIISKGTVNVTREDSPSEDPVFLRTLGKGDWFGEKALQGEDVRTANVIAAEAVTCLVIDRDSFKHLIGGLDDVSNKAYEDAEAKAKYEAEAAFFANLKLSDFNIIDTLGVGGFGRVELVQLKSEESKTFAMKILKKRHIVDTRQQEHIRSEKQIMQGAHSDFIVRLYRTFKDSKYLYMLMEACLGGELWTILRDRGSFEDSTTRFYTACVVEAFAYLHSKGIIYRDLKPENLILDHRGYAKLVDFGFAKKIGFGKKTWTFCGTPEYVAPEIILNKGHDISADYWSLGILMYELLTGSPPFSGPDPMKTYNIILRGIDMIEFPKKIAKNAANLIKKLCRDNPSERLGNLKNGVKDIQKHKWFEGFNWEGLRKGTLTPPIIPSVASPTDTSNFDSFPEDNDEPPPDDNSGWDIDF

[10] = target: INSRR (Homo sapiens, UniProt P14616); assay: biochemical; details: read-out: %Ctrl @ 2000nM
[11] = target: DCAMKL1 (Homo sapiens, UniProt O15075); assay: biochemical; details: read-out: %Ctrl @ 2000nM
[12] = target: PRKCE (Homo sapiens, UniProt Q02156); assay: biochemical; details: read-out: %Ctrl @ 2000nM
[13] = target: JAK1(JH2domain-pseudokinase) (Homo sapiens, UniProt P23458); assay: biochemical; details: read-out: %Ctrl @ 2000nM
[14] = target: AXL (Homo sapiens, UniProt P30530); assay: biochemical; details: read-out: %Ctrl @ 2000nM
AXL, sequence (P30530 26-894): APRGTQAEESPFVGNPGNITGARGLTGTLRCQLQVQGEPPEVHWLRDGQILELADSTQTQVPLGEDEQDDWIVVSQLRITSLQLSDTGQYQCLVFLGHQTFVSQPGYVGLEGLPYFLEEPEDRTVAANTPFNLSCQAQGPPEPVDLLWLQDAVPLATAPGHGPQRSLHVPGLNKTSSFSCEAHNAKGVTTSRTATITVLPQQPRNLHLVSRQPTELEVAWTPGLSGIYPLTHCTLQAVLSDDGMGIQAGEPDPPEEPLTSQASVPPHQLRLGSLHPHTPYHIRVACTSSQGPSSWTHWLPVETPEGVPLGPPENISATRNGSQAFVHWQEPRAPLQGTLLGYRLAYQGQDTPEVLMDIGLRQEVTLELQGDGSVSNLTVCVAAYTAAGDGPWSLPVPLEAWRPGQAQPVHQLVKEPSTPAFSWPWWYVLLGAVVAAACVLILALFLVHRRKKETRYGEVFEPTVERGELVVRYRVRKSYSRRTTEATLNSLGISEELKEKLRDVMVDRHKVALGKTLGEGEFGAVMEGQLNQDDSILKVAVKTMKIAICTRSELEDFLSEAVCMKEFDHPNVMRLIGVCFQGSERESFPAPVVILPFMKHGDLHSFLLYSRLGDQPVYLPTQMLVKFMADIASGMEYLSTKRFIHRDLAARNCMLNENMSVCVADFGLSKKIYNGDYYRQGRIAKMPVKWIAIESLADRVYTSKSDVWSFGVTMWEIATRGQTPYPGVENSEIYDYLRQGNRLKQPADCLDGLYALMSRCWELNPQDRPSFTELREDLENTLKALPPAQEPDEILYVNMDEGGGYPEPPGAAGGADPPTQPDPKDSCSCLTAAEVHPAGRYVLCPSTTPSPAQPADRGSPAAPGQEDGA

[15] = target: ALK(L1196M) (Homo sapiens, UniProt Q9UM73, L1196M); assay: biochemical; details: read-out: %Ctrl @ 2000nM
[16] = target: CDK4 (Homo sapiens, UniProt P11802); assay: biochemical; details: read-out: %Ctrl @ 2000nM
[17] = target: ERK1 (Homo sapiens, UniProt P27361); assay: biochemical; details: read-out: %Ctrl @ 2000nM
ERK1, sequence (P27361 whole entry): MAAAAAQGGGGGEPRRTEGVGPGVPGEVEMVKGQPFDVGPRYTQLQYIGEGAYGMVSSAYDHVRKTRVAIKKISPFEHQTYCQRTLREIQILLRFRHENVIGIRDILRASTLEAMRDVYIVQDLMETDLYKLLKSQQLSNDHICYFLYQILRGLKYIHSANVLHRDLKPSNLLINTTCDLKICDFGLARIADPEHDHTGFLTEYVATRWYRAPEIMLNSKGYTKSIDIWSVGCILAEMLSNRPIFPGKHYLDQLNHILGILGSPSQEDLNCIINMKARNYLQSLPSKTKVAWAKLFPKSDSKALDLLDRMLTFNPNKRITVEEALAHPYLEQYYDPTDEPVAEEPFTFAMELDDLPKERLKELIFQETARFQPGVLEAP

[18] = target: CDKL3 (Homo sapiens, UniProt Q8IVW4); assay: biochemical; details: read-out: %Ctrl @ 2000nM
[19] = target: JNK2 (Homo sapiens, UniProt P45984); assay: biochemical; details: read-out: %Ctrl @ 2000nM
[20] = target: TYK2(JH1domain-catalytic) (Homo sapiens, UniProt P29597); assay: biochemical; details: read-out: %Ctrl @ 2000nM
TYK2(JH1domain-catalytic), sequence (P29597 897-1176 limits assumed): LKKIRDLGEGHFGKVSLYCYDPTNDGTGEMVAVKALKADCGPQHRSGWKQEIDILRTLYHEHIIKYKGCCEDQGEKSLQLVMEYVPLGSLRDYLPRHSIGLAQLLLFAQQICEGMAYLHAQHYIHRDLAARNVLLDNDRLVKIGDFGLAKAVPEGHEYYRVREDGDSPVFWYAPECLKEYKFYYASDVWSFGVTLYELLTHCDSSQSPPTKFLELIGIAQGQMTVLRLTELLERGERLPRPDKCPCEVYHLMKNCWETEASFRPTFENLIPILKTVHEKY

[21] = target: RSK3(Kin.Dom.1-N-terminal) (Homo sapiens, UniProt Q15349); assay: biochemical; details: read-out: %Ctrl @ 2000nM
[22] = target: DMPK2 (Homo sapiens, UniProt Q6DT37); assay: biochemical; details: read-out: %Ctrl @ 2000nM
[23] = target: MAP3K3 (Homo sapiens, UniProt Q99759); assay: biochemical; details: read-out: %Ctrl @ 2000nM
[24] = target: AKT2 (Homo sapiens, UniProt P31751); assay: biochemical; details: read-out: %Ctrl @ 2000nM
[25] = tested on: primary hepatocytes; assay: cells; details: Hepatocyte, read-out: IC50 cell viability
[26] = tested on: CK2 in 786-O cells; details: read-out: IC50 CK2 activity in cell extracts
[27] = target: EGFR(L747-S752del, P753S) (Homo sapiens, UniProt P00533, DEL747-752/P753S); assay: biochemical; details: read-out: %Ctrl @ 2000nM
[28] = target: MAPKAPK5 (Homo sapiens, UniProt Q8IW41); assay: biochemical; details: read-out: %Ctrl @ 2000nM
[29] = target: CDKL5 (Homo sapiens, UniProt O76039); assay: biochemical; details: read-out: %Ctrl @ 2000nM
[30] = target: PFTAIRE2 (Homo sapiens, UniProt Q96Q40); assay: biochemical; details: read-out: %Ctrl @ 2000nM
[31] = target: KIT(A829P) (Homo sapiens, UniProt P10721, A829P); assay: biochemical; details: read-out: %Ctrl @ 2000nM
[32] = target: GCN2(Kin.Dom.2,S808G) (Homo sapiens, UniProt Q9P2K8, S808G); assay: biochemical; details: read-out: %Ctrl @ 2000nM
[33] = target: PAK4 (Homo sapiens, UniProt O96013); assay: biochemical; details: read-out: %Ctrl @ 2000nM
PAK4, sequence (O96013 whole entry): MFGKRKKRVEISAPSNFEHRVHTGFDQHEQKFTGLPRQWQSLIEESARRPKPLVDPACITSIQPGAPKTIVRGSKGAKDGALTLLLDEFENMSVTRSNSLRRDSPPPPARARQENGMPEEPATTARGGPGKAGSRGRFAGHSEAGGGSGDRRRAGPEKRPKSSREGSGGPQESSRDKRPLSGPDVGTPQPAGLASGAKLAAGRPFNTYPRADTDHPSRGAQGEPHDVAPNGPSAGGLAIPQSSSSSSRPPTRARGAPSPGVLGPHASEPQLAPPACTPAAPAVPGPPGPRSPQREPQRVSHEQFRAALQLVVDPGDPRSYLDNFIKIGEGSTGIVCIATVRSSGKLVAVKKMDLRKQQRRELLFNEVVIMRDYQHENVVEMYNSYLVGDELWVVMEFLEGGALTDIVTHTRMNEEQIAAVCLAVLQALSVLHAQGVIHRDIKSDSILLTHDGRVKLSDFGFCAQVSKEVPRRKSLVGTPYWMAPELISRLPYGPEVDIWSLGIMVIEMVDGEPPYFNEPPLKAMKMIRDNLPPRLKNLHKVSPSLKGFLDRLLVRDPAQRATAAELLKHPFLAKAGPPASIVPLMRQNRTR

[34] = target: NEK11 (Homo sapiens, UniProt Q8NG66); assay: biochemical; details: read-out: %Ctrl @ 2000nM
[35] = target: AURKA (Homo sapiens, UniProt O14965); assay: biochemical; details: read-out: %Ctrl @ 2000nM
[36] = target: PRKCH (Homo sapiens, UniProt P24723); assay: biochemical; details: read-out: %Ctrl @ 2000nM
[37] = target: BMPR2 (Homo sapiens, UniProt Q13873); assay: biochemical; details: read-out: %Ctrl @ 2000nM
[38] = target: PCTK1 (Homo sapiens, UniProt Q00536); assay: biochemical; details: read-out: %Ctrl @ 2000nM
PCTK1, sequence (Q00536 whole entry): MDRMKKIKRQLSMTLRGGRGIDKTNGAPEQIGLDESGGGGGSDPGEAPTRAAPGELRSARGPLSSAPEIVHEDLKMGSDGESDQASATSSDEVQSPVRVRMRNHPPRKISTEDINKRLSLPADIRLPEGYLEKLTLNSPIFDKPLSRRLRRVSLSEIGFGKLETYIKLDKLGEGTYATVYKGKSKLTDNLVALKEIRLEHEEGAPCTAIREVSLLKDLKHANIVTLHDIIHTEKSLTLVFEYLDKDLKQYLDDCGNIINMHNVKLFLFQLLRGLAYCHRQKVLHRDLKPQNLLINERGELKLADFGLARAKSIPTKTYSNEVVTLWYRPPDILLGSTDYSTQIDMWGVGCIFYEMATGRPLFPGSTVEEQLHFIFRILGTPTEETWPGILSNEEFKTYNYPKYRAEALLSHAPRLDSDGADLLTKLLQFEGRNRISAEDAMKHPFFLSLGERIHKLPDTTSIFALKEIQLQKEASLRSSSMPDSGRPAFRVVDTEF

[39] = target: JAK3(JH1domain-catalytic) (Homo sapiens, UniProt P52333); assay: biochemical; details: read-out: %Ctrl @ 2000nM
[40] = target: IRAK3 (Homo sapiens, UniProt Q9Y616); assay: biochemical; details: read-out: %Ctrl @ 2000nM
[41] = target: CLK3 (Homo sapiens, UniProt P49761); assay: biochemical; details: read-out: %Ctrl @ 2000nM
[42] = target: p38-delta (Homo sapiens, UniProt O15264); assay: biochemical; details: read-out: %Ctrl @ 2000nM

FAK, sequence (Q05397 whole entry): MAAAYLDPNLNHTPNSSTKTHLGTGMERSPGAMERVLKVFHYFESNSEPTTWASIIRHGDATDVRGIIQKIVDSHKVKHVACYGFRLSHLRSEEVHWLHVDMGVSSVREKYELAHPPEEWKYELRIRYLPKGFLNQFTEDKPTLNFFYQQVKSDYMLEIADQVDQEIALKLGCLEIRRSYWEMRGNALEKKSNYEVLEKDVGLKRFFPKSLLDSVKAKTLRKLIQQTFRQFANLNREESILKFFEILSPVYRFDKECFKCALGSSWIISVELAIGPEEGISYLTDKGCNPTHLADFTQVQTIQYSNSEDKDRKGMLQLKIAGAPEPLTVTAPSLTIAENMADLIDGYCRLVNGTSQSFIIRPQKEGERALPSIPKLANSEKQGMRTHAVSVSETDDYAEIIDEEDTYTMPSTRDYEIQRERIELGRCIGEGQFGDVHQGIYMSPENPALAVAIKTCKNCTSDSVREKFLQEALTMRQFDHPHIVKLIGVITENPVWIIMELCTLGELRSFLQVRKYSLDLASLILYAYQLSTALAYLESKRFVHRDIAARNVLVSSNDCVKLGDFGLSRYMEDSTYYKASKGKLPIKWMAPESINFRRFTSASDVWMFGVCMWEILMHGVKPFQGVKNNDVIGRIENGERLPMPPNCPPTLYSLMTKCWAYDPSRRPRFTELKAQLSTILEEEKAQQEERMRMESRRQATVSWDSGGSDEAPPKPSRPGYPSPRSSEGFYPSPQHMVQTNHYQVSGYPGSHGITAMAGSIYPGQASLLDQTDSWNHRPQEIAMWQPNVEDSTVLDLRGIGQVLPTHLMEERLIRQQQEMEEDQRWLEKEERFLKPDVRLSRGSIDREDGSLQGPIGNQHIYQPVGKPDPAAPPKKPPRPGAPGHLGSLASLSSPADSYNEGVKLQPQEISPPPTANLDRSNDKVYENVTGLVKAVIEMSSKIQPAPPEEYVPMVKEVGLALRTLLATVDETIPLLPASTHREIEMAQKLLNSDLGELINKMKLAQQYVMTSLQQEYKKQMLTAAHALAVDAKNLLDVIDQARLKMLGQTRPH

CC(C)COC(=O)c1[nH]c2ccc(F)cc2c1-c1cn(CC2CCN(CCNS(=O)(=O)c3ccc(CC(C)C)cc3)CC2)nn1 [AB668, isobutyl 5-fluoro-3-(1-((1-(2-((4-isobutylphenyl)sulfonamido)ethyl)piperidin-4-yl)methyl)-1H-1,2,3-triazol-4-yl)-1H-indole-2-carboxylate]
remaining activity at 2 µM [1]: 91% | remaining activity at 2 µM [2]: 75% | remaining activity at 2 µM [3]: 96% | remaining activity at 2 µM [4]: 64% | remaining activity at 2 µM [5]: 81% | remaining activity at 2 µM [6]: 88% | remaining activity at 2 µM [7]: 91% | remaining activity at 2 µM [8]: 71% | remaining activity at 2 µM [9]: 85% | remaining activity at 2 µM [10]: 93% | remaining activity at 2 µM [11]: 71% | remaining activity at 2 µM [12]: 98% | remaining activity at 2 µM [13]: 93% | remaining activity at 2 µM [14]: 100% | remaining activity at 2 µM [15]: 85% | remaining activity at 2 µM [16]: 100% | remaining activity at 2 µM [17]: 75% | remaining activity at 2 µM [18]: 88% | remaining activity at 2 µM [19]: 92% | remaining activity at 2 µM [20]: 85% | remaining activity at 2 µM [21]: 93% | remaining activity at 2 µM [22]: 85% | remaining activity at 2 µM [23]: 100% | remaining activity at 2 µM [24]: 97% | IC50 [25]: > 100000 nM | IC50 [26]: 340 ± 70 nM | remaining activity at 2 µM [27]: 98% | remaining activity at 2 µM [28]: 95% | remaining activity at 2 µM [29]: 91% | remaining activity at 2 µM [30]: 88% | remaining activity at 2 µM [31]: 78% | remaining activity at 2 µM [32]: 80% | remaining activity at 2 µM [33]: 95% | remaining activity at 2 µM [34]: 100% | remaining activity at 2 µM [35]: 100% | remaining activity at 2 µM [36]: 92% | remaining activity at 2 µM [37]: 100% | remaining activity at 2 µM [38]: 94% | remaining activity at 2 µM [39]: 73% | remaining activity at 2 µM [40]: 86% | remaining activity at 2 µM [41]: 79% | remaining activity at 2 µM [42]: 96%
